Read-outs that look alike come from different tables or passages of the source.
How the values were obtained:
[1] = molecular target: HIS-KRAS(G12C) (Homo sapiens (Human), UniProt P01116, G12C); assay: SOS1 catalyzed nucleotide exchange assay (TR-FRET); format: biochemical; conditions: GDP-loaded HIS-KRAS(G12C), 1 hour pre-incubation, TR-FRET
Description: TR-FRET signals were then read on Tecan Spark multimode microplate reader. […] TR-FRET ratios for each individual wells were calculated by equation: TR-FRET ratio=(Signal F515/Signal F486)*10000. Then the data were analyzed using a 4-parameter logistic model to calculate IC50 values.

[2] = system: NCI-H358 cells expressing KRAS G12C mutant protein; assay: Phospho-ERK1/2(THR202/TYR204) HTRF assay; format: cell-based; conditions: 2 hours incubation, read-out: p-ERK IC50
Description: The NCI-H358 cells in culture medium were seeded in 96-well plates at a concentration of 40,000 cells/well and then put in a 37° C./5% CO2 cell incubator to incubate overnight. […] After 2 hours incubation in a 37° C./5% CO2 cell incubator, the assay medium in 96-well plates was removed, then 50 μL of 1× blocking reagent-supplemented lysis buffer (Cisbio) was added and the plates were incubated at 25° C. for 45 min with shaking. 10 μL of cell lysates from the 96-well plates were transferred to a 384-well plate (Greiner) containing 2.5 μL/well HTRF® pre-mixed antibodies (Cisbio 64AERPEH). Incubate 4 hours at 25° C. and then read HTRF signals on Tecan Spark multimode microplate reader. The data were analyzed using a 4-parameter logistic model to calculate IC50 values.

[3] = Mouse pharmacokinetic study; format: in vivo, Balb/c mouse; conditions: plasma, Balb/c mouse (female)
Description: The purpose of this study was to evaluate the pharmacokinetic properties of compounds in Balb/c mouse (♀) following single dose administration. The day before administration, mice were fasted overnight and free access to water. Six mice were needed for each compound and the six mice were divided into two groups (n=3/group), group A and group B. Mice in group A were treated with a single 3 mg/kg dose of compound (iv). Mice in group B were treated with a single 10 mg/kg dose of compound (po). For each mouse in group A, blood samples were collected at pre-dose, and at the time point of 0.083, 0.25, 0.5, 1, 2, 4, 6, 8 and 24 h post-dose. For each mouse in group B, blood samples were collected at pre-dose, and at the time point of 0.25, 0.5, 1, 2, 3, 4, 6, 8 and 24 h post-dose. Blood samples were placed on ice until centrifugation to obtain plasma samples. The plasma samples were stored at −80° C. until analysis. The concentration of compound in plasma samples was determined using a LC-MS/MS method.

[4] = Dog pharmacokinetic study; format: in vivo, beagle dog; conditions: plasma, beagle dog; for clearance / Vd: 1 mg/kg, iv; for Vd: read-out: VSS; for AUC(0-t) / Cmax / bioavailability: 3 mg/kg, po; for AUC(0-t): read-out: AUC0-24h; for Cmax: read-out: Cmax; for bioavailability: read-out: Oral BA (F %)
Description: (§1) The purpose of this study was to evaluate the pharmacokinetic properties of compounds in beagle dog following single dose administration. The day before administration, dogs were fasted overnight and free access to water. Four beagle dogs were needed for each compound and the four dogs were divided into two groups, group A and group B (one male(♂) and one female (♀) in each group). Dogs in group A were treated with a single 1 mg/kg dose of compound (iv). Dogs in group B were treated with a single 3 mg/kg dose of compound (po). For dogs in group A, blood samples were collected at pre-dose, and at the time point of 0.083, 0.25, 0.5, 1, 2, 4, 6, 8 and 24 h post-dose. For dogs in group B, blood samples were collected at pre-dose, and at the time point of 0.25, 0.5, 1, 2, 4, 6, 8 and 24 h post-dose. Blood samples were placed on ice until centrifugation to obtain plasma samples. The plasma samples were stored at −80° C. until analysis. The concentration of compound in plasma samples was determined using a LC-MS/MS method.

[5] = Cynomolgus monkey pharmacokinetic study; format: in vivo; conditions: plasma, cynomolgus monkey; for clearance / Vd: 1 mg/kg, iv; for Vd: read-out: VSS; for AUC(0-t) / Cmax / bioavailability: 3 mg/kg, po; for AUC(0-t): read-out: AUC0-24h; for Cmax: read-out: Cmax; for bioavailability: read-out: Oral BA (F %)
Description: as §1, with “cynomolgus monkey” for “beagle dog”, “monkeys” for “dogs”, “monkeys are” for “beagle dogs were”, “male (♂)” for “male(♂)”, “Monkeys” for “Dogs”

HIS-KRAS(G12C), sequence (P01116 other isoform, or with tags, fused parts or gaps G12C): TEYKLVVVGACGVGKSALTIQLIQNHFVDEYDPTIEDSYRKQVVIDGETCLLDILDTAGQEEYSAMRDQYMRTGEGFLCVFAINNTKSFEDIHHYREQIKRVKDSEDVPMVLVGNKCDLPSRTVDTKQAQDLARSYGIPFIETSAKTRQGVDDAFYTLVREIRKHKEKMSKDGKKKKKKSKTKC

In the case of `C=CC(=O)N1CCN(c2nc(=O)n(-c3c(C)ccnc3C(C)C)c3nc(-c4c(N)c(F)c(F)c(F)c4F)c(F)cc23)C[C@H]1C` (single isomer, unassigned) [Compound 4-1], the IC50 [1] is reported as 0.00331 µM and the IC50 ([2]; Homo sapiens, NCI-H358, 2 h) is reported as 0.0409 µM.

Molecule `C=CC(=O)N1[C@H](C)CN(c2nc(=O)n(-c3c(C)ccnc3C(C)C)c3nc(-c4c(N)c(F)c(F)c(F)c4F)c(F)cc23)C[C@@H]1C` (single isomer, unassigned) [Compound 5-1] has an IC50 [1] of 0.0033 µM and an IC50 [2] of 0.0178 µM.

`C=CC(=O)N1CCN(c2nc(=O)n(-c3c(C)ccnc3C(C)C)c3nc(-c4c(F)c(F)c(F)c(N)c4Cl)c(F)cc23)C[C@H]1C` [Compound 6, 4-((R)-4-acryloyl-3-methylpiperazin-1-yl)-7-(3-amino-2-chloro-4,5,6-trifluorophenyl)-6-fluoro-1-(2-isopropyl-4-methylpyridin-3-yl)pyrido[2,3-d]pyrimidin-2(1H)-one] showed an IC50 [1] of 0.0401 µM.

For `C=CC(=O)N1CCN(c2nc(=O)n(-c3c(C)ccnc3C(C)C)c3nc(-c4c(F)c(F)c(F)c(N)c4Cl)c(F)cc23)[C@@H](C)C1` [Compound 1, 4-((S)-4-acryloyl-2-methylpiperazin-1-yl)-7-(3-amino-2-chloro-4,5,6-trifluorophenyl)-6-fluoro-1-(2-isopropyl-4-methylpyridin-3-yl)pyrido[2,3-d]pyrimidin-2(1H)-one], the IC50 [1] was 0.00725 µM and the IC50 ([2]; Homo sapiens, NCI-H358, 2 h) was 0.0701 µM.

`C=CC(=O)N1[C@H](C)CN(c2nc(=O)n(-c3c(C)ccnc3C(C)C)c3nc(-c4c(N)c(F)c(F)c(F)c4F)c(F)cc23)C[C@@H]1C` (single isomer, unassigned) [Compound 5-2] gave an IC50 [1] of 0.0961 µM and an IC50 [2] of 0.774 µM.

For `C=CC(=O)N1CCN(c2nc(=O)n(-c3c(C)ccnc3C(C)C)c3nc(-c4c(N)c(F)c(F)c(F)c4F)c(F)cc23)CC1` (single isomer, unassigned) [Compound 3-2, 4-(4-acryloylpiperazin-1-yl)-7-(2-amino-3,4,5,6-tetrafluorophenyl)-6-fluoro-1-(2-isopropyl-4-methylpyridin-3-yl)pyrido[2,3-d]pyrimidin-2(1H)-one], the IC50 [1] was 0.234 µM.

`C=CC(=O)N1[C@H](C)CN(c2nc(=O)n(-c3c(C)ccnc3C(C)C)c3nc(-c4c(N)c(F)c(F)c(F)c4F)c(F)cc23)C[C@@H]1C` [Compound 5, 4-((3S,5R)-4-acryloyl-3,5-dimethylpiperazin-1-yl)-7-(2-amino-3,4,5,6-tetrafluorophenyl)-6-fluoro-1-(2-isopropyl-4-methylpyridin-3-yl)pyrido[2,3-d]pyrimidin-2(1H)-one] showed an IC50 [1] of 0.00541 µM and an IC50 ([2]; Homo sapiens, NCI-H358, 2 h) of 0.0488 µM.

`C=CC(=O)N1CCN(c2nc(=O)n(-c3c(C)ccnc3C(C)C)c3nc(-c4c(F)c(F)c(F)c(N)c4Cl)c(F)cc23)[C@@H](C)C1` (single isomer, unassigned) [Compound 1-2] gave an IC50 [1] of 0.121 µM.

Molecule `C=CC(=O)N1CCN(c2nc(=O)n(-c3c(C)ccnc3C(C)C)c3nc(-c4c(F)c(F)c(F)c(N)c4Cl)c(F)cc23)[C@@H](C)C1` (single isomer, unassigned) [Compound 1-1] has an IC50 [1] of 0.00408 µM and an IC50 ([2]; Homo sapiens, NCI-H358, 2 h) of 0.0166 µM.

Molecule `C=CC(=O)N1CCN(c2nc(=O)n(-c3c(C)ccnc3C(C)C)c3nc(-c4c(O)cccc4F)c(F)cc23)[C@@H](C)C1` [Amg-510, reference compound] has a clearance ([3]; 3 mg/kg, iv) of 40.5 mL/min/kg, a Vd ([3]; 3 mg/kg, iv, read-out: Vss) of 1.64 L/kg and an AUC(0-t) ([3]; 10 mg/kg, po, read-out: AUC0-24 h) of 1810 ng·h/mL. For the same molecule, the Cmax ([3]; 10 mg/kg, po, read-out: Cmax) was 1600 ng/mL, the bioavailability ([3]; 10 mg/kg, po, read-out: Oral BA (F %)) was 43.9% and the clearance ([4]; female) was 20.1 mL/min/kg. It also gave a Vd ([4]; female) of 0.543 L/kg, an AUC(0-t) ([4]; female) of 404 ng·h/mL and a Cmax ([4]; female) of 450 ng/mL. The bioavailability ([4]; female) was 16.4%, the clearance ([4]; male) was 21.1 mL/min/kg and the Vd ([4]; male) was 0.535 L/kg. It also gave an AUC(0-t) ([4]; male) of 1990 ng·h/mL, a Cmax ([4]; male) of 1840 ng/mL and a bioavailability ([4]; male) of 84.4%. It also gave a clearance ([5]; female) of 84.3 mL/min/kg, a Vd ([5]; female) of 2.01 L/kg and an AUC(0-t) ([5]; female) of 241 ng·h/mL. It also gave a Cmax ([5]; female) of 100 ng/mL, a bioavailability ([5]; female) of 41.3% and a clearance ([5]; male) of 25.5 mL/min/kg. For the same molecule, the Vd ([5]; male) was 0.775 L/kg, the AUC(0-t) ([5]; male) was 214 ng·h/mL and the Cmax ([5]; male) was 133 ng/mL. The bioavailability ([5]; male) was 11%.

`C=CC(=O)N1CCN(c2nc(=O)n(-c3c(C)ccnc3C(C)C)c3nc(-c4c(N)c(F)c(F)c(F)c4F)c(F)cc23)C[C@H]1C` (single isomer, unassigned) [Compound 4-2] showed an IC50 [1] of 0.278 µM.

For `C=CC(=O)N1[C@H](C)CN(c2nc(=O)n(-c3c(C)ccnc3C(C)C)c3nc(-c4c(F)c(F)c(F)c(N)c4Cl)c(F)cc23)C[C@@H]1C` (single isomer, unassigned) [Compound 7-1], the IC50 [1] was 0.00654 µM and the IC50 ([2]; Homo sapiens, NCI-H358, 2 h) was 0.0367 µM.

`C=CC(=O)N1CCN(c2nc(=O)n(-c3c(C)ccnc3C(C)C)c3nc(-c4c(N)c(F)c(F)c(F)c4F)c(F)cc23)C[C@H]1C` [Compound 4, 4-((R)-4-acryloyl-3-methylpiperazin-1-yl)-7-(2-amino-3,4,5,6-tetrafluorophenyl)-6-fluoro-1-(2-isopropyl-4-methylpyridin-3-yl)pyrido[2,3-d]pyrimidin-2(1H)-one] gave an IC50 [1] of 0.0103 µM.

`C=CC(=O)N1[C@H](C)CN(c2nc(=O)n(-c3c(C)ccnc3C(C)C)c3nc(-c4c(F)c(F)c(F)c(N)c4Cl)c(F)cc23)C[C@@H]1C` (single isomer, unassigned) [Compound 7-2] showed an IC50 [1] of 0.307 µM.

For `C=CC(=O)N1CCN(c2nc(=O)n(-c3c(C)ccnc3C(C)C)c3nc(-c4c(N)c(F)c(F)c(F)c4F)c(F)cc23)CC1` [Compound 3, 4-(4-acryloylpiperazin-1-yl)-7-(2-amino-3,4,5,6-tetrafluorophenyl)-6-fluoro-1-(2-isopropyl-4-methylpyridin-3-yl)pyrido[2,3-d]pyrimidin-2(1H)-one], the IC50 [1] was 0.00551 µM.

With `C=CC(=O)N1[C@H](C)CN(c2nc(=O)n(-c3c(C)ccnc3C(C)C)c3nc(-c4c(F)c(F)c(F)c(N)c4Cl)c(F)cc23)C[C@@H]1C` [Compound 7, 4-((3S,5R)-4-acryloyl-3,5-dimethylpiperazin-1-yl)-7-(3-amino-2-chloro-4,5,6-trifluorophenyl)-6-fluoro-1-(2-isopropyl-4-methylpyridin-3-yl)pyrido[2,3-d]pyrimidin-2(1H)-one] the IC50 [1] was 0.0175 µM.

Source: US11345701B1, “KRAS mutant protein inhibitors” (Jacobio Pharmaceuticals Co., Ltd., priority 2021, dated 2022)
